This note sets out measurements from ChEMBL document CHEMBL4610010, “Metachromins X and Y from a marine sponge Spongia sp. and their effects on cell cycle progression” (Bioorg Med Chem, 2020).

Where a name gives a salt, the structure may show the parent alone. Calls of active or inactive are those of the source. The calls are words filed in the database; no cut-off is given here.

In assay [1] the test system is HeLa/Fucci2. Nature of the assay: Induction of cell cycle arrest in human HeLa/Fucci2 cells assessed as accumulation at S/G2/M phase at 56 uM measured after 68 hrs by Time-lapse imaging analysis based fluorescent microscopic method. It counts as functional.
Assay [2] has as its system HeLa/Fucci2. Nature of the assay: Induction of cell cycle arrest in human HeLa/Fucci2 cells assessed as accumulation at S/G2/M phase at 56 uM incubated for 3 days by flow cytometric analysis (reference value: 20.4%). It counts as functional. A general note: A flow cytometer gives signals particle by particle.
Assay [3] deals with HeLa/Fucci2. Description: Induction of cell cycle arrest in human HeLa/Fucci2 cells assessed as accumulation at G1/S phase at 56 uM incubated for 3 days by flow cytometric analysis (reference value: 40.2%). It counts as functional.
Assay [4] deals with HeLa/Fucci2. Description: Induction of cell cycle arrest in human HeLa/Fucci2 cells assessed as accumulation at G1 phase at 56 uM incubated for 3 days by flow cytometric analysis (reference value: 39.4%). It counts as functional.
Assay [5] deals with HeLa/Fucci2. Description: Antiproliferative activity against human HeLa/Fucci2 cells assessed as inhibition of cell viability incubated for 3 days by MTT assay. The conditions noted are these: HeLa/Fucci2, 72 h. It counts as functional, cell-based. In general terms: Tetrazolium assays rely on reduction of a dye to a coloured formazan, in cell work by metabolically active cells.

Broadly, the IC50 is the concentration at which inhibition is half-maximal. For the compound `COC1=CC(=O)C(O)=C(C/C=C(\C)CCC2=C(C)CCCC2(C)C)C1=O`, in the assay on HeLa/Fucci2 [1], the outcome was Active. Besides, the Activity in the assay with HeLa/Fucci2 [2] is recorded as 88%; with HeLa/Fucci2 [3], 4.3%; in the assay with HeLa/Fucci2 [4], 7.6%. In addition, the IC50 in the assay with HeLa/Fucci2 [5] came to 64 µM.
As for `COc1cc(OC)c2c(c1O)C=C[C@](C)(CC[C@@]1(C)CCC=C(C)[C@H]1C)O2`, in the assay with HeLa/Fucci2 [1], the result was inactive. The 50% inhibitory concentration (IC50) in the assay on HeLa/Fucci2 [5] amounted to 89 µM.
On to `COC1=CC(=O)C2=C(C=CC(C)(CCC3=C(C)CCCC3(C)C)O2)C1=O` (racemic), for which the result with HeLa/Fucci2 [1] was inactive. Besides, the Activity is recorded as 55% in the assay on HeLa/Fucci2 [2], 23.4% with HeLa/Fucci2 [3] and 21.5% with HeLa/Fucci2 [4]. Moreover, in the assay on HeLa/Fucci2 [5], the IC50 is 76 µM.
Consider `COC1=CC(=O)C(O)=C(C/C=C(\C)CC[C@@]2(C)CCC=C(C)[C@H]2C)C1=O` [METACHROMIN C], for which, in the assay with HeLa/Fucci2 [1], the result was Active. Besides, the IC50 with HeLa/Fucci2 [5] is 53 µM.
For `COc1cccc2c1C(=O)c1c(O)c3c(c(O)c1C2=O)C[C@@](O)(C(=O)CO)C[C@@H]3O[C@H]1C[C@H](N)[C@H](O)[C@H](C)O1` [DOXORUBICIN HYDROCHLORIDE], in the assay on HeLa/Fucci2 [5], the 50% inhibitory concentration (IC50) is 2 µM.
Take `COC1=CC(=O)C2=C(C=CC(C)(CC[C@@]3(C)CCC=C(C)[C@H]3C)O2)C1=O` (some centres not stated): the outcome with HeLa/Fucci2 [1] was inactive. Further, the IC50 in the assay on HeLa/Fucci2 [5] was 73 µM.
